Test results published in paper PMC11477298, “Small Molecules Inducing Autophagic Degradation of Expanded Polyglutamine Protein through Interaction with Both Mutant ATXN3 and LC3” (International Journal of Molecular Sciences, 2024).

What was measured:
[1] = MTT compound cytotoxicity assay; format: cell-based, human; details: human, ATXN3-Q75-GFP SH-SY5Y cells, 0.1–100 μM compound, viability analyzed the next day, n = 3
Procedure: For the compound cytotoxicity assay, ATXN3-Q75-GFP SY5Y cells (2 × 10^4) were plated into 96-well dishes, grown for 20 h, and treated with 0.1–100 μM test compounds. After 1 day, 3-(4,5-dimethylthiazol-2-yl)-2,5-diphenyltetrazolium bromide (MTT, 5 mg/mL) (Sigma-Aldrich, St. Louis, MO, USA) was added to the cells and incubated for 3 h at 37 °C. Lysis buffer (10% Triton X-100, 0.1 N HCl, 18% isopropanol) was then added to dissolve the insoluble formazan crystals. The absorbance of the purple-colored solution was measured at optical density (OD) 570 nm by using a FLx800 fluorescence microplate spectrophotometer (Bio-Tek, Winooski, VT, USA). The half-maximal inhibitory concentration (IC50) was calculated through the construction of a dose–response curve.

[2] = test system: ATXN3-Q75-VC and VN-LC3; assay: Co-immunoprecipitation of VN-LC3 with ATXN3-Q75-VC in mixed 293T cell lysates; format: binding; details: compound 100 µM; compared to without compound treatment
From the text: EcoRI-NcoI ATXN3 C-terminal Q14 and Q75-containing fragment (amino acids 251–361 in full-length ATXN3-Q14 [NM_004993]; [20]) and NcoI-NotI Venus C-terminal fragment (VC212-239) were subcloned into EcoRI- and NotI-digested pcDNA3 vector (Invitrogen) to generate pcDNA3-ATXN3-Q14−75-VC plasmid for producing ATXN3-Q14−75-VC fusion protein linked by a 6-amino acid polypeptide linker (containing NcoI restriction site). In addition, BamHI-XbaI Venus-N-terminal fragment (VN1-211) and XbaI-BamHI LC3 cDNA fragment (MAP1LC3B, NM_022818) were subcloned into BamHI-digested pcDNA5/FRT/TO vector (Invitrogen) to generate pcDNA5-VN-LC3 plasmid for producing VN-LC3 fusion protein linked by a 2-amino acid dipeptide linker (containing XbaI restriction site). The recombinant pcDNA3-ATXN3-Q14-VC, pcDNA3-ATXN3-Q75-VC, or pcDNA5-VN-LC3 plasmid (2 μg) was transiently transfected into 293T cells (2 × 10^5/6-well) using T-Pro non-liposome transfection reagent II (T-Pro Biotechnology #JT97-N002M, New Taipei City, Taiwan) according to the supplier’s instruction. After 48 h, cell lysate containing ATXN3-Q14-VC, ATXN3-Q75-VC, or VN-LC3 fusion protein was prepared using cytoskeleton (CSK) buffer containing 10 mM PIPES, 100 mM NaCl, 300 mM sucrose, 1 mM EGTA, 1 mM MgCl2, and 1 mM DTT and quantified, as described.
In this case, 293T cell lysates with transiently expressed ATXN3-Q14-VC, ATXN3-Q75-VC, or VN-LC3, and mixture of ATXN3-Q75-VC and VN-LC3 (100 μg of each) in 400 μL CSK buffer were incubated at 4 °C under gentle rotation. To test the concept of the ATTEC, 100 μM of the compound (NC009-1, -2, and -6 or LM-031) was added to the lysates containing ATXN3-Q75-VC and VN-LC3 proteins. After overnight incubation, ATXN3-Q14−75-VC protein was immunoprecipitated with rabbit ataxin-3 (1:1000; Invitrogen #PA5-26251) or mouse 5TF1-1C2 antibody (1:500; Merck #MAB1574, Darmstadt, Germany) at 4 °C overnight. […] The immune complexes were detected using HRP-conjugated goat anti-rabbit (#GTX213110-01) or goat anti-mouse (#GTX213111-01) IgG antibody (1:5000; GeneTex) and chemiluminescent substrate, as described.

[3] = test system: ATXN3-Q75-GFP SH-SY5Y cells; assay: Confocal microscopy of LC3 puncta, ATXN3-Q75 aggregates and P62 colocalization; format: cell-based, human; details: compound 10 μM, range over trehalose and the four compounds; for Colocalization coefficient of ATXN3-Q75-GFP with LC3 puncta: untreated 0.014; for Colocalization coefficient of LC3 with P62: untreated 0.21; for LC3 puncta per cell: untreated induced 2.7
Procedure: ATXN3-Q75-GFP SY5Y cells were seeded onto 12-well plates (1 × 10^5/well) containing poly-L-lysine-coated coverslip on day 1; treated with retinoic acid, test compounds, and doxycycline on day 2; and fixed, permeabilized, and blocked on day 8, as described. The primary anti-LC3 antibody (1:1000; Cell Signaling #83506, Danvers, MA, USA) or anti-P62 antibody (1:1500; Cell Signaling #5114) was used to stain cells at 4 °C overnight. After washing with PBS containing 0.1% Tween 20 (PBST), cells were incubated for 2 h at room temperature with Cy5-conjugated (1:1000, Jackson ImmunoResearch 715-175-150) or Alexa Fluor 555-conjugated (1:500; Invitrogen #A-31572) secondary antibody, and washed three times with PBST. Nuclei were detected using DAPI (0.1 μg/mL; Sigma-Aldrich). The stained cells on coverslips were mounted onto microscope slides with Vectashield antifade mounting medium (Vector Laboratories, Newark, CA, USA) and examined using a Zeiss LSM880 confocal microscope (Carl Zeiss AG, Oberkochen, Baden-Württemberg, Germany). Cell images were acquired at excitation/emission wavelengths of 649/666 nm, 482/536 nm, 555/582 nm, and 385/461 nm for stained LC3 puncta, aggregates, P62, and nuclei, respectively. For colocalization, 300 cells from three independent experiments were analyzed and quantified for the proportion of pixels that LC3 (red) colocalized with P62 (yellow) using Mander’s overlap coefficient (MOC) in ZEN software version 2.1 (Carl Zeiss AG).

Structure (SMILES) | IC50 at 1 day [1] [µM] | Amount of VN-LC3 co-immunoprecipitated by 5TF1-1C2 antibody [2] | Colocalization coefficient of ATXN3-Q75-GFP with LC3 puncta [3] | Colocalization coefficient of LC3 with P62 [3] | LC3 puncta per cell [3]
O=C(c1ccccc1)c1cc2c(O)cccc2oc1=O [LM-031] | > 100 | notably increased | 0.025–0.030 | 0.26–0.29 | 4.6–6.7
CC(=O)/C(=C\c1ccccc1[N+](=O)[O-])Cc1c[nH]c2ccccc12 [NC009-1] | 111 | notably increased | 0.025–0.030 | 0.26–0.29 | 4.6–6.7
CC(=O)/C(=C\c1ccccc1[N+](=O)[O-])Cc1c(C)[nH]c2ccccc12 [NC009-2] | 124 | notably increased | 0.025–0.030 | 0.26–0.29 | 4.6–6.7
